system: apyrase; experiment: Screen for apyrase inhibitors (Method 1, in vitro phosphate-release absorbance assay); assay type: biochemical; conditions: inhibitor conc at 1 mM stock, 1 hr room temperature, absorbance 630 nm; rounded average of two assay results
Summary of the method: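 Phosphate-release colorimetric assay (Windsor method) in 60 mM Hepes, 3 mM MgCl2, 3 mM CaCl2, 3 mM ATP, pH 6.5, with compound or DMSO control added. Released phosphate developed with ammonium molybdate and ascorbic acid/TCA, then stopped with citrate/acetic acid.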

Row | SMILES | % Inhibition of Apyrase [%]
1 | COc1ccc([N+](=O)[O-])cc1NC(=O)c1cccc(S(=O)(=O)Nc2ccc(Cl)cc2)c1 [I-254, 3-(N-(4-chlorophenyl)sulfamoyl)-N-(2-methoxy-5-nitrophenyl)benzamide] | 61
2 | Cc1ccc(NC(=O)c2ccc(C(=O)Nc3ccc(C)cc3)cc2)cc1 [I-859, N1,N4-di-p-tolylterephthalamide] | 72
3 | COc1ccc(NS(=O)(=O)c2cccc(NC(=O)c3cccc(-n4cccc4)c3)c2)cc1 [I-27, N-(3-(N-(4-methoxyphenyl)sulfamoyl)phenyl)-3-(1H-pyrrol-1-yl)benzamide] | 24
4 | COc1ccc(NC(=O)c2ccc(NS(=O)(=O)c3ccc4c(c3)OCCO4)cc2)cc1 [I-941, 4-((2,3-dihydrobenzo[b][1,4]dioxine)-6-sulfonamido)-N-(4-methoxyphenyl)benzamide] | 50
5 | O=C(Nc1cccc(S(=O)(=O)Nc2ccc(Cl)cc2)c1)c1cnccn1 [I-775, N-(3-(N-(4-chlorophenyl)sulfamoyl)phenyl)pyrazine-2-carboxamide] | 3
6 | Cc1cc(Cl)ccc1NC(=O)c1ccc(Cl)c(S(=O)(=O)Nc2ccc(Cl)cc2C)c1 [I-433, 4-chloro-N-(4-chloro-2-methylphenyl)-3-(N-(4-chloro-2-methylphenyl)sulfamoyl)benzamide] | 65
7 | COC(=O)c1c(C)[nH]c(C(=O)Nc2cccc(S(=O)(=O)Nc3cccc(C(F)(F)F)c3)c2)c1C [I-721, methyl 2,4-dimethyl-5-((3-(N-(3-(trifluoromethyl)phenyl)sulfamoyl)phenyl)carbamoyl)-1H-pyrrole-3-carboxylate] | 57
8 | O=C(Nc1cccc([N+](=O)[O-])c1)c1ccc(Br)c(S(=O)(=O)Nc2ccc(F)cc2)c1 [I-19, 4-bromo-3-(N-(4-fluorophenyl)sulfamoyl)-N-(3-nitrophenyl)benzamide] | 50
9 | O=C(Nc1cccc(S(=O)(=O)Nc2cccc(C(F)(F)F)c2)c1)c1ccc(Cl)nc1 [I-725, 6-chloro-N-(3-(N-(3-(trifluoromethyl)phenyl)sulfamoyl)phenyl) nicotinamide] | 57
10 | O=C1Cc2cc(S(=O)(=O)Nc3ccccc3NC(=O)c3ccc(Cl)cc3)ccc2N1 [I-843, 4-chloro-N-(2-((2-oxoindoline)-5-sulfonamido)phenyl)benzamide] | 5
11 | NS(=O)(=O)c1cccc(NC(=O)c2cccc(S(=O)(=O)N3CCc4ccccc43)c2)c1 [I-529, 3-(indolin-1-ylsulfonyl)-N-(3-sulfamoylphenyl)benzamide] | 55
12 | Cc1ccc(N(C)S(=O)(=O)c2cccc(C(=O)Nc3ccc4c(c3)CCC4)c2)cc1 [I-504, N-(2,3-dihydro-1H-inden-5-yl)-3-(N-methyl-N-(p-tolyl)sulfamoyl)benzamide] | 57
13 | Cc1ccc(NS(=O)(=O)c2ccc(NC(=O)c3cccc(S(C)(=O)=O)c3)cc2)cc1C [I-989, N-(4-(N-(3,4-dimethylphenyl)sulfamoyl)phenyl)-3-(methylsulfonyl)benzamide] | 54
14 | COc1ccccc1NC(=O)c1ccc(NS(=O)(=O)c2cccc(Cl)c2Cl)cc1 [I-943, 4-((2,3-dichlorophenyl)sulfonamido)-N-(2-methoxyphenyl)benzamide] | 48
15 | O=C(Nc1ccc(OC(F)F)cc1)c1ccccc1NS(=O)(=O)c1ccc(F)cc1 [I-376, N-(4-(difluoromethoxy)phenyl)-2-((4-fluorophenyl)sulfonamido)benzamide] | 35
16 | COc1ccc(NS(=O)(=O)c2cccc(NC(=O)c3ccc(Cl)nc3)c2)cc1 [I-714, 6-chloro-N-(3-(N-(4-methoxyphenyl)sulfamoyl)phenyl) nicotinamide] | 58
17 | O=C(Nc1nccs1)c1cccc(NS(=O)(=O)c2cc(Cl)ccc2Cl)c1 [I-639, 3-((2,5-dichlorophenyl)sulfonamido)-N-(thiazol-2-yl)benzamide] | 56
18 | O=C(Nc1ccccc1[N+](=O)[O-])c1cc(S(=O)(=O)Nc2ccc(Br)cc2)ccc1Cl [I-44, 5-(N-(4-bromophenyl)sulfamoyl)-2-chloro-N-(2-nitrophenyl)benzamide] | 13
19 | O=C(Nc1cccc([N+](=O)[O-])c1)c1cccc(S(=O)(=O)Nc2cccc(F)c2)c1 [I-51, 3-(N-(3-fluorophenyl)sulfamoyl)-N-(3-nitrophenyl)benzamide] | 10
20 | CC(C)(C)c1ccc(C(=O)Nc2ccccc2NS(=O)(=O)c2cccc(S(N)(=O)=O)c2)cc1 [I-838, 4-(tert-butyl)-N-(2-((3-sulfamoylphenyl)sulfonamido)phenyl) benzamide] | 29

Row | SMILES | % Inhibition of Apyrase [%]
21 | O=C(Nc1cccc(Cl)c1)c1cccc(NS(=O)(=O)c2cccs2)c1 [I-631, N-(3-chlorophenyl)-3-(thiophene-2-sulfonamido)benzamide] | 62
22 | O=C(c1cccc(S(=O)(=O)Nc2cccc(C(F)(F)F)c2)c1)N1CCCc2ccccc21 [I-441, 3-(1,2,3,4-tetrahydroquinoline-1-carbonyl)-N-(3-(trifluoromethyl)phenyl)benzenesulfonamide] | 62
23 | CN(c1ccccc1)S(=O)(=O)c1ccccc1C(=O)Nc1ccc(Cl)cc1F [I-808, N-(4-chloro-2-fluorophenyl)-2-(N-methyl-N-phenylsulfamoyl)benzamide] | 80
24 | Cc1ccc(S(=O)(=O)N(C)c2ccc(C(=O)Nc3ccc4c(c3)OCCO4)cc2)cc1 [I-938, N-(2,3-dihydrobenzo[b][1,4]dioxin-6-yl)-4-((N,4-dimethylphenyl)sulfonamido)benzamide] | 51
25 | COc1ccc(NC(=O)c2ccc(S(=O)(=O)Nc3ccc(F)cc3)cc2)cc1 [I-408, 4-(N-(4-fluorophenyl)sulfamoyl)-N-(4-methoxyphenyl)benzamide] | 30
26 | O=C(Nc1ccc(Br)cc1)c1ccc(NS(=O)(=O)c2ccc(F)c(F)c2)cc1 [I-948, N-(4-bromophenyl)-4-((3,4-difluorophenyl)sulfonamido)benzamide] | 43
27 | O=C(Nc1cccc(C(F)(F)F)c1)c1cccc(NS(=O)(=O)c2ccc(Cl)nc2)c1 [I-643, 3-((6-chloropyridine)-3-sulfonamido)-N-(3-(trifluoromethyl)phenyl)benzamide] | 55
28 | COc1ccc(NC(=O)c2cccc(S(=O)(=O)Nc3cccc(Cl)c3)c2)cn1 [I-612, 3-(N-(3-chlorophenyl)sulfamoyl)-N-(6-methoxypyridin-3-yl)benzamide] | 4
29 | Cc1nc2ccc(NC(=O)c3cccc(S(=O)(=O)Nc4ccc5c(c4)OCO5)c3)cc2s1 [I-261, 3-(N-(benzo[d][1,3]dioxol-5-yl)sulfamoyl)-N-(2-methylbenzo[d]thiazol-6-yl)benzamide] | 60
30 | O=C(Nc1ccc(Br)cc1F)c1cccc(S(=O)(=O)N2CCc3ccccc32)c1 [I-470, N-(4-bromo-2-fluorophenyl)-3-(indolin-1-ylsulfonyl)benzamide] | 59
31 | O=C(Nc1ccc2c(c1)OCCO2)c1cccc(S(=O)(=O)N2CCc3ccccc32)c1 [I-523, N-(2,3-dihydrobenzo[b][1,4]dioxin-6-yl)-3-(indolin-1-ylsulfonyl)benzamide] | 55
32 | COc1ccc(N(C)S(=O)(=O)c2cccc(C(=O)Nc3ccc(Br)cc3)c2)cc1 [I-267, N-(4-bromophenyl)-3-(N-(4-methoxyphenyl)-N-methylsulfamoyl)benzamide] | 58
33 | O=C(Nc1ccccc1NS(=O)(=O)c1ccc(F)cc1)c1ccc(Cl)cc1 [I-839, 4-chloro-N-(2-((4-fluorophenyl)sulfonamido)phenyl)benzamide] | 23
34 | Cc1ccc(NC(=O)c2cccc(S(=O)(=O)N3c4ccccc4CC3C)c2)c(C)c1 (stereo not shown) [I-547, N-(2,4-dimethylphenyl)-3-((2-methylindolin-1-yl)sulfonyl)benzamide] | 53
35 | O=C(Nc1ccc2c(c1)OC1(CCCC1)O2)c1cccc(S(=O)(=O)Nc2ccc3c(c2)OCO3)c1 [I-531, 3-(N-(benzo[d][1,3]dioxol-5-yl)sulfamoyl)-N-(spiro[benzo[d][1,3]dioxole-2,1′-cyclopentan]-5-yl)benzamide] | 55
36 | O=C(Nc1ccccc1N1CCCC1=O)c1cccc(S(=O)(=O)N2CCc3ccccc32)c1 [I-600, 3-(indolin-1-ylsulfonyl)-N-(2-(2-oxopyrrolidin-1-yl)phenyl)benzamide] | 29
37 | Cc1cc(Br)ccc1NC(=O)c1ccc(NS(=O)(=O)c2ccc(F)cc2)cc1 [I-933, N-(4-bromo-2-methylphenyl)-4-((4-fluorophenyl)sulfonamido)benzamide] | 53
38 | COc1ccccc1NC(=O)c1ccc(NS(=O)(=O)c2ccc(C#N)cc2)cc1 [I-942, 4-((4-cyanophenyl)sulfonamido)-N-(2-methoxyphenyl)benzamide] | 49
39 | Cc1c(Cl)cccc1NC(=O)c1cccc(S(=O)(=O)N2CCc3ccccc32)c1 [I-455, N-(3-chloro-2-methylphenyl)-3-(indolin-1-ylsulfonyl)benzamide] | 60
40 | O=C(NCCC1CCCO1)c1cccc(S(=O)(=O)Nc2ccc(Br)cc2)c1 (stereo not shown) [I-42, 3-(N-(4-bromophenyl)sulfamoyl)-N-(2-(tetrahydrofuran-2-yl)ethyl)benzamide] | 13
